This test concerns L1210 leukemia ip in BDF1 mice, survival T/C. The experiment in a line: NCI In Vivo Anticancer Drug Screen. Data for tumor model L1210 Leukemia (intraperitoneal) in B6D2F1 (BDF1) mice. As to conditions: endpoint: mean survival time, higher = longer survival. The gist of the method:
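Read-out is survival time, reported as the treated-group measurement over the vehicle-control measurement.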

Where [1] appears, read: dose: 100.0 mg/kg/injection, schedule: Q01DX009 (ip), vehicle: Klucel (hydroxypropylcellulose) (HPC).
[2] abbreviates: dose: 100.0 mg/kg/injection, schedule: Q04DX003 (ip), vehicle: Klucel (hydroxypropylcellulose) (HPC).
[3] abbreviates: dose: 200.0 mg/kg/injection, schedule: Q01DX009 (ip), vehicle: Klucel (hydroxypropylcellulose) (HPC).
Setting [4] is: dose: 200.0 mg/kg/injection, schedule: Q04DX003 (ip), vehicle: Klucel (hydroxypropylcellulose) (HPC).
[5] abbreviates: dose: 400.0 mg/kg/injection, schedule: Q01DX009 (ip), vehicle: Klucel (hydroxypropylcellulose) (HPC).
The mark [6] stands for this setting: dose: 400.0 mg/kg/injection, schedule: Q04DX003 (ip), vehicle: Klucel (hydroxypropylcellulose) (HPC).
[7] abbreviates: dose: 50.0 mg/kg/injection, schedule: Q04DX003 (ip), vehicle: saline.
[8] abbreviates: dose: 100.0 mg/kg/injection, schedule: Q01DX001 (ip), vehicle: saline.
[9] abbreviates: dose: 100.0 mg/kg/injection, schedule: Q04DX003 (ip), vehicle: saline with Tween-80.
[10] abbreviates: dose: 200.0 mg/kg/injection, schedule: Q01DX001 (ip), vehicle: saline.
Where [11] appears, read: dose: 200.0 mg/kg/injection, schedule: Q04DX003 (ip), vehicle: saline with Tween-80.
Where [12] appears, read: dose: 50.0 mg/kg/injection, schedule: Q01DX001 (ip), vehicle: carboxymethylcellulose (CMC).
The mark [13] stands for this setting: dose: 100.0 mg/kg/injection, schedule: Q01DX001 (ip), vehicle: carboxymethylcellulose (CMC).
The mark [14] stands for this setting: dose: 200.0 mg/kg/injection, schedule: Q01DX001 (ip), vehicle: carboxymethylcellulose (CMC).

This passage reports T/C results from PubChem BioAssay AID248 (DTP/NCI, 2004).

Values joined by “and” are separate entries in the source; they are usually repeats but may differ in a detail not shown here. Equal entries are not always repeated. Toxic doses and inconclusive results are not listed.

For the molecule `O=C(Oc1ccc(Cl)cc1)c1ccccc1`, the T/C was 95 % of control under setting [1]; 103 % of control under setting [2]; 101 % of control under setting [3]; 105 % of control under setting [4]; 101 % of control under setting [5]; 92 % of control under setting [6].
Consider `CCN(CC)CCOc1ccc(/C=C2\CCc3ccccc3C2=O)cc1`, for which the T/C runs as follows: (dose: 25.0 mg/kg/injection, schedule: Q01DX007 (ip), vehicle: saline) 104 % of control; (dose: 50.0 mg/kg/injection, schedule: Q01DX007 (ip), vehicle: saline) 102 % of control; under setting [7], 95 % of control; (dose: 100.0 mg/kg/injection, schedule: Q01DX007 (ip), vehicle: saline) 96 % of control; (dose: 100.0 mg/kg/injection, schedule: Q04DX003 (ip), vehicle: saline) 95 % of control.
With `COc1cc(C=Nc2cc(Br)c(O)c(Br)c2)ccc1N(CCCCl)CCCCl`, the T/C is 97 % of control under setting [2], 100 % of control under setting [4] and 102 % of control under setting [6].
On to `CCCCNC(C)(C)COC(=O)/C=C/c1ccc(OCCCC)cc1`, for which the T/C is 92 % of control (dose: 50.0 mg/kg/injection, schedule: Q04DX003 (ip), vehicle: saline with Tween-80); 104 % of control under setting [8]; 86 % of control (dose: 100.0 mg/kg/injection, schedule: Q01DX015 (ip), vehicle: saline); 94 % of control under setting [9]; 102 % of control under setting [10]; 89 % of control (dose: 200.0 mg/kg/injection, schedule: Q01DX015 (ip), vehicle: saline). Also, the T/C under setting [11] was 105 % of control.
With `COc1cc(C2(O)C=C(C)C(=O)C=C2C)c(OC)cc1C` (stereo not given), the T/C by setting is: (dose: 50.0 mg/kg/injection, schedule: Q01DX001 (ip), vehicle: Klucel (hydroxypropylcellulose) (HPC)) 92 % of control; (dose: 100.0 mg/kg/injection, schedule: Q01DX001 (ip), vehicle: Klucel (hydroxypropylcellulose) (HPC)) 87 % of control; (dose: 200.0 mg/kg/injection, schedule: Q01DX001 (ip), vehicle: Klucel (hydroxypropylcellulose) (HPC)) 86 % of control.
On to `CC(C)(Cc1ccccc1)NC(=O)N(CCCl)N=O`, for which the T/C runs as follows: (dose: 31.0 mg/kg/injection, schedule: Q01DX001 (ip), vehicle: other) 124 % of control; (dose: 62.0 mg/kg/injection, schedule: Q01DX001 (ip), vehicle: other) 151 % of control; (dose: 250.0 mg/kg/injection, schedule: Q01DX001 (ip), vehicle: other) 194 % of control; (dose: 375.0 mg/kg/injection, schedule: Q01DX001 (ip), vehicle: other) 244 % of control; (dose: 500.0 mg/kg/injection, schedule: Q01DX001 (ip), vehicle: other) 273 % of control; (dose: 750.0 mg/kg/injection, schedule: Q01DX001 (ip), vehicle: other) 263 % of control. Moreover, the T/C (dose: 1000.0 mg/kg/injection, schedule: Q01DX001 (ip), vehicle: other) is 111 % of control.
On to `COC(=O)c1cc(C)c(Br)c(OC)c1`, for which the T/C under setting [1] was 98 % of control; the T/C under setting [2] was 94 % of control; the T/C under setting [3] is 100 % of control; the T/C under setting [4] was 111 % of control; the T/C under setting [6] was 100 % of control.
As to `CCCCOCCC1CCNCC1`, the T/C is, setting by setting: (dose: 12.5 mg/kg/injection, schedule: Q01DX009 (ip), vehicle: saline) 97 % of control; (dose: 12.5 mg/kg/injection, schedule: Q04DX003 (ip), vehicle: saline) 96 % of control; (dose: 25.0 mg/kg/injection, schedule: Q01DX009 (ip), vehicle: saline) 101 % of control; (dose: 25.0 mg/kg/injection, schedule: Q04DX003 (ip), vehicle: saline) 97 % of control; (dose: 50.0 mg/kg/injection, schedule: Q01DX009 (ip), vehicle: saline) 101 % of control; under setting [7], 100 % of control.
Turning to `BrC(Br)c1ccc2ccccc2n1`, the T/C reads like this: under setting [1], 89 % of control; under setting [2], 95 % of control; under setting [3], 94 % of control; under setting [4], 95 % of control; under setting [5], 94 % of control; under setting [6], 97 % of control.
Take `CCCCCCCC(=O)NCCCCC`: the T/C is 98 % of control under setting [12]; 97 % of control and 113 % of control (dose: 50.0 mg/kg/injection, schedule: Q01DX009 (ip), vehicle: carboxymethylcellulose (CMC)); 103 % of control (dose: 50.0 mg/kg/injection, schedule: Q04DX003 (ip), vehicle: carboxymethylcellulose (CMC)); 105 % of control under setting [13]; 108 % of control (dose: 100.0 mg/kg/injection, schedule: Q01DX009 (ip), vehicle: carboxymethylcellulose (CMC)); 94 % of control (dose: 100.0 mg/kg/injection, schedule: Q04DX002 (ip), vehicle: carboxymethylcellulose (CMC)). Also, the T/C is, setting by setting: (dose: 100.0 mg/kg/injection, schedule: Q04DX003 (ip), vehicle: carboxymethylcellulose (CMC)) 96 % of control; under setting [14], 100 % of control; (dose: 200.0 mg/kg/injection, schedule: Q01DX009 (ip), vehicle: carboxymethylcellulose (CMC)) 104 % of control and 90 % of control; (dose: 200.0 mg/kg/injection, schedule: Q04DX002 (ip), vehicle: carboxymethylcellulose (CMC)) 96 % of control; (dose: 200.0 mg/kg/injection, schedule: Q04DX003 (ip), vehicle: carboxymethylcellulose (CMC)) 98 % of control; (dose: 400.0 mg/kg/injection, schedule: Q04DX002 (ip), vehicle: carboxymethylcellulose (CMC)) 96 % of control.
As to `CC(C)=CCCC1(C)C=Cc2c(c(C)cc3c2[nH]c2ccccc23)O1` (stereo not given), the T/C by setting is: (dose: 25.0 mg/kg/injection, schedule: Q04DX002 (ip), vehicle: gum acacia) 96 % of control; (dose: 50.0 mg/kg/injection, schedule: Q04DX002 (ip), vehicle: gum acacia) 89 % of control; (dose: 100.0 mg/kg/injection, schedule: Q04DX002 (ip), vehicle: gum acacia) 99 % of control.
Turning to `CC1CN(c2nc3ccccc3o2)C(C)CN1c1nc2ccccc2o1` (stereo not given), the T/C was 96 % of control under setting [13]; 94 % of control under setting [14]; 89 % of control (dose: 400.0 mg/kg/injection, schedule: Q01DX001 (ip), vehicle: carboxymethylcellulose (CMC)).
Take `Cc1cccc(NC(=O)N(CCCl)N=O)c1`: the T/C runs as follows: (dose: 2.6 mg/kg/injection, schedule: Q01DX009 (ip), vehicle: carboxymethylcellulose (CMC)) 163 % of control; (dose: 4.0 mg/kg/injection, schedule: Q01DX009 (ip), vehicle: carboxymethylcellulose (CMC)) 164 % of control and 197 % of control; (dose: 6.0 mg/kg/injection, schedule: Q01DX009 (ip), vehicle: carboxymethylcellulose (CMC)) 150 % of control and 192 % of control; (dose: 25.0 mg/kg/injection, schedule: Q01DX001 (ip), vehicle: carboxymethylcellulose (CMC)) 101 % of control; under setting [12], 86 % of control; under setting [13], 86 % of control.
Turning to `Clc1ccc2c3c(cccc13)CC2`, the T/C (dose: 75.0 mg/kg/injection, schedule: Q01DX001 (ip), vehicle: carboxymethylcellulose (CMC)) is 97 % of control; the T/C (dose: 150.0 mg/kg/injection, schedule: Q01DX001 (ip), vehicle: carboxymethylcellulose (CMC)) is 97 % of control; the T/C (dose: 300.0 mg/kg/injection, schedule: Q01DX001 (ip), vehicle: carboxymethylcellulose (CMC)) was 97 % of control.
As for `CCOC(=O)Sc1nc2ccccc2[nH]1`, the T/C is, setting by setting: (dose: 75.0 mg/kg/injection, schedule: Q04DX003 (ip), vehicle: saline with Tween-80) 101 % of control; (dose: 150.0 mg/kg/injection, schedule: Q04DX003 (ip), vehicle: saline with Tween-80) 98 % of control; (dose: 300.0 mg/kg/injection, schedule: Q04DX003 (ip), vehicle: saline with Tween-80) 87 % of control.
Regarding `CNCCc1ccc2cc(OC)c(OC)cc2c1`, the T/C under setting [9] was 91 % of control.
Regarding `CC(=O)OCC1OC(OC(C)=O)C(OC(C)=O)C1OC(C)=O` (stereo not given), the T/C reads like this: under setting [8], 107 % of control; under setting [10], 106 % of control; (dose: 400.0 mg/kg/injection, schedule: Q01DX001 (ip), vehicle: saline) 102 % of control.
With `COC(=O)C1=C(N)CCc2ccccc21`, the T/C was 97 % of control under setting [9]; 103 % of control under setting [11]; 101 % of control (dose: 400.0 mg/kg/injection, schedule: Q04DX003 (ip), vehicle: saline with Tween-80).
